Experimental data from US20160074401A1, “COMPOSITIONS AND METHODS UTILIZING PHOSPHODIESTERASE INHIBITORS TO TREAT BLAST-INDUCED TINNITUS AND/OR HEARING LOSS” (WAYNE STATE UNIVERSITY, priority 2013, published 2016).

Key:
[1] = upon oral intake; cited from earlier work
[2] = tested on: blast-exposed Sprague Dawley rats (wave 1 amplitude); assay: ABR wave 1 (P1N1) amplitude after blast exposure; type: in vivo, rat; conditions: 28 kHz
Procedure: ABRs were recorded to evaluate hearing thresholds. Each rat was anesthetized using a mixture of air (0.41/min) and isoflurane (2-3%, v/v) and placed in a prone position with its head fixed to a stereotaxic frame. Body temperature was maintained using a warming blanket connected to a thermostatic controller (Harvard Instruments, Holliston, Mass.). Acoustic stimuli consisted of 0.1 ms clicks or 10 ms pure-tone bursts presented at 4, 8, 12, 16, 20, or 28 kHz and delivered through a speaker tube inserted into the external auditory canal. Three subcutaneous platinum-coated tungsten electrodes were used to record ABR waveforms, with the reference electrode inserted below the pinna ipsilateral to the speaker tube, the grounding electrode inserted below the contralateral pinna, and the recording electrode inserted at the vertex. […] Data were recorded using BioSigRP® and SigGenRP® software (TDT, Alachua, Fla.) installed on an IBM computer connected to System 3 TDT workstation.
There is a significant reduction in wave 1 amplitudes in human subjects suffering from tinnitus despite a seemingly normal audiogram. In order to assess the possibility of underlying wave 1 amplitude reduction despite recovery of ABR thresholds, wave 1 amplitudes for 28 kHz frequency were measured at pre-blast and at 6 weeks post-blast and compared between the Treated and Untreated groups (FIGS. 7A and 7B). […]

[3] = tested on: rats exposed to embolic stroke; conditions: sildenafil treated rats; cited from earlier work
[4] = tested on: Neurospheres isolated from the subventricular zone of adult rat brains; conditions: neurospheres treated with sildenafil; cited from earlier work
[5] = tested on: blast-exposed Sprague Dawley rats (blast-induced tinnitus); assay: Gap-detection testing (acoustic startle) for blast-induced tinnitus
Text: Thirty adult Sprague Dawley rats (110 days old, 250-300 g) were purchased from Charles River Laboratories (Wilmington, Mass.).
Animals underwent 8 rounds of behavior testing to stabilize baseline Gap-detection and PPI performance prior to blast or sham-blast exposure. […] Briefly, each rat was placed in a custom-built polycarbonate restrainer (FIG. 1) and set inside a lit startle monitor cabinet equipped with two ceiling speakers for background sound/prepulses and startle stimuli. Restrainers were mounted on top of a platform connected to a piezoelectric transducer, which measured downward startle force. Acoustic stimuli and startle force were calibrated using a Newton impulse calibrator (Kinder Scientific) and a microphone (Model 4016; ACO Pacific, Belmont, Calif.).
During the Gap-detection procedure, rats were exposed to constant 60 dB sound pressure level (SPL) background noise consisting of 2 kHz bandpass signals from 2-4 kHz, 6-8 kHz, 8-10 kHz, 10-12 kHz, 14-16 kHz, 18-20 kHz, or 26-28 kHz, or BBN (2-30 kHz). They were subjected to either a 50 ms white noise burst startle stimulus (startle only; dominating plateau from 3-37 kHz with energy up to 97.5 kHz) presented at 115 dB or the startle stimulus preceded by a 40 ms silent period beginning 90 ms before the startle stimulus (Gap). For each testing session, rats were presented 8 times with the startle only and Gap conditions for each frequency bandpass signal and BBN. The PPI procedure was identical to the Gap-detection procedure except that no background sound was presented. Rats were subjected to either the startle stimulus alone (startle only) or the startle stimulus preceded by a 40 ms prepulse beginning 90 ms before the startle stimulus. Prepulses (60 dB, SPL) consisted of the same frequencies as those used for background noise.
A two-minute acclimatization period was given at the beginning of each session, followed by two startle stimuli presented without background sound to trigger any initial, exaggerated startle reflexes. Gap-detection and PPI testing sessions lasted a little over thirty minutes each. […]

[6] = tested on: focal cerebral cryolesion; conditions: treatment following cryolesion; cited from earlier work

Compound | Tmax [1] [min] | Wave 1 (P1N1) amplitude, Treated vs Untreated ([2]; exposed ear, 6 weeks post-blast) | Decrease of wave 1 amplitude ([2]; 6 weeks after triple blast exposure, Treated group (same in Untreated)) [%] | Effects after embolic stroke [3] | cGMP concentration [4] | Gap-detection in Sham group (drug, no blast): tinnitus symptoms produced by the drug ([5]; Sham group: sildenafil 10 mg/kg, no blast exposure, throughout the study) | Effect on high-frequency tinnitus (overall) ([5]; high-frequency (26-28 kHz) tinnitus, reemerged afterwards) | Duration of therapeutic effect on blast-induced tinnitus (Gap-detection) ([5]; sildenafil 10 mg/kg oral gavage, two 7-day rounds) | Effects after focal cerebral cryolesion [6]
CCCc1nn(C)c2c(=O)[nH]c(-c3cc(S(=O)(=O)N4CCN(C)CC4)ccc3OCC)nc12 [sildenafil, 1-[4-ethoxy-3-(6,7-dihydro-1-methyl-7-oxo-3-propyl-1H-pyrazolo[4,3-d]pyrimidin-5-yl)phenylsulfonyl]-4-methylpiperazine] | ≤ 11 | no significant differences between the two groups at time-matched points | 45 | improvement in angiogenesis, selective increase in cerebral blood flow, and enhanced neurological functional recovery up to 6 weeks post-injury | increased cGMP concentration | the drug itself did not produce tinnitus symptoms | suppressed high-frequency tinnitus from 3-6 weeks post-blast | maintained up to week 6 | –
CCCOc1ccccc1-c1nc2nn[nH]c2c(=O)[nH]1 [Zaprinast] | – | – | – | – | – | – | – | – | improved functional recovery, reduced oxidative stress, and prevention of apoptotic cell death
